In publication PMC10599993, “The PTPN2/PTPN1 inhibitor ABBV-CLS-484 unleashes potent anti-tumour immunity” (Nature, 2023):

How the values were obtained:
Assay in all cases: biochemical
Set-up in all cases: Kinase selectivity panel, IC50 of AC484 (Supplementary Table 1)
[1] = molecular target: Lck (Homo sapiens, UniProt P06239)
[2] = molecular target: MAP2K3 (Homo sapiens, UniProt P46734)
[3] = molecular target: STK16 (Homo sapiens, UniProt O75716)
[4] = molecular target: T1, PKCbeta2 (Homo sapiens, UniProt P05771)
T1 construct: gene PRKCB; isoform beta2

[5] = molecular target: TAOK2 (Homo sapiens, UniProt Q9UL54)
[6] = molecular target: T2, MST1 (Homo sapiens, UniProt Q13043)
T2 construct: gene STK4

[7] = molecular target: Blk (Homo sapiens, UniProt P51451)
[8] = molecular target: CSF1R (Homo sapiens, UniProt P07333)
[9] = molecular target: T3, Rsk2 (Homo sapiens, UniProt P51812)
T3 construct: gene RPS6KA3
T3 sequence (P51812 whole entry): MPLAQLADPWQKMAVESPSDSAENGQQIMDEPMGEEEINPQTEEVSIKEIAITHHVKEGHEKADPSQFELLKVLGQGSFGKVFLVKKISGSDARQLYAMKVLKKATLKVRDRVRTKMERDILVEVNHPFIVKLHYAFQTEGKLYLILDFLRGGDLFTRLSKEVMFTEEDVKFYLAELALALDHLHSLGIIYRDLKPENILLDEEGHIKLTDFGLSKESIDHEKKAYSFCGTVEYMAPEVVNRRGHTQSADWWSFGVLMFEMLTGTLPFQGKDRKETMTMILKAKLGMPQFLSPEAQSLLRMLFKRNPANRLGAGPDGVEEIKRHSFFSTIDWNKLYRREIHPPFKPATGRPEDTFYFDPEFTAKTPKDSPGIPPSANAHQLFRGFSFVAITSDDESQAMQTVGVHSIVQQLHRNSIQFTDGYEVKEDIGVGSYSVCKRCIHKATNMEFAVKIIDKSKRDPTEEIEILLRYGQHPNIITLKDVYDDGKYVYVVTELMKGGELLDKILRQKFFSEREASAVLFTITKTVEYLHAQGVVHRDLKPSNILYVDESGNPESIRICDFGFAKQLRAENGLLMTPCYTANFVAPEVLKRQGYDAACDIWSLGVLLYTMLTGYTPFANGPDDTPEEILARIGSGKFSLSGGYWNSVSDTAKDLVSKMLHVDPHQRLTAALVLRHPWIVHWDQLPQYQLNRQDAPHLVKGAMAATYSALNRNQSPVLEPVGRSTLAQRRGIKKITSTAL

[10] = molecular target: IGF1R (Homo sapiens, UniProt P08069)
Sequence of IGF1R (P08069 whole entry): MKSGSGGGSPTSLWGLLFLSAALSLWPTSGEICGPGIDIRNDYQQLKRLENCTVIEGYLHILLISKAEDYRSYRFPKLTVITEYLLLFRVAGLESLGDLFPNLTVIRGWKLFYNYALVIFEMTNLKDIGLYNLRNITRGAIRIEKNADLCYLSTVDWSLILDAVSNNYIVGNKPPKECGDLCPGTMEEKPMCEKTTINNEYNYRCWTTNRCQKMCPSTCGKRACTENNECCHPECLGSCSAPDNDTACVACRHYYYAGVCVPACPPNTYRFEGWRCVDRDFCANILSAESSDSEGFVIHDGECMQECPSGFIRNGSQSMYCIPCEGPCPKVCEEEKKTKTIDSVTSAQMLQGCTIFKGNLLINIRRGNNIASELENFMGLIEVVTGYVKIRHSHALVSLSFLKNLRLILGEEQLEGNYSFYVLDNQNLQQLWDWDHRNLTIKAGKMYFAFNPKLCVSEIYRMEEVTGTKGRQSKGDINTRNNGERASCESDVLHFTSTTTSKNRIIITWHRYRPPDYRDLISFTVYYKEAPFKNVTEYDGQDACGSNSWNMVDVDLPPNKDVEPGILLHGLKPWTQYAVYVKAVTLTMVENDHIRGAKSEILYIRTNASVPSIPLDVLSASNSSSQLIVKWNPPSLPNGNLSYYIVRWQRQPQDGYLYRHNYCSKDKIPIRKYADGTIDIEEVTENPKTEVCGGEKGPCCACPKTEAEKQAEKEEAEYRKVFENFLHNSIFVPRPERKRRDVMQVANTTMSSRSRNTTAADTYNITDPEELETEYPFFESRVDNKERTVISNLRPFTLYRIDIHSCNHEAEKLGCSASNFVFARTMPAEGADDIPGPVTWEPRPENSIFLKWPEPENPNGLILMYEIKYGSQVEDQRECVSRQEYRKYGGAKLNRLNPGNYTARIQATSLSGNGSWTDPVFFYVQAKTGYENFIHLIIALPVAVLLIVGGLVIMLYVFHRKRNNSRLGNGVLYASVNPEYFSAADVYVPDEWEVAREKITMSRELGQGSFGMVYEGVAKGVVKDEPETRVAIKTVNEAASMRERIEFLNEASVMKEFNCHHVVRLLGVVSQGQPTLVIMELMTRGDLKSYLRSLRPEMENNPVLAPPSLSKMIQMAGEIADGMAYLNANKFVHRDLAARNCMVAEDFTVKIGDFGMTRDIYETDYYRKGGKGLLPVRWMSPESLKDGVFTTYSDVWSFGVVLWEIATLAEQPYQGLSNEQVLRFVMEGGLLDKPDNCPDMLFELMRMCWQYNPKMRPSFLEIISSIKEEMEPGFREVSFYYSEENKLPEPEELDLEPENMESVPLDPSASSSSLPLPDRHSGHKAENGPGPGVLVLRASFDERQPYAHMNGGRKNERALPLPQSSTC

[11] = molecular target: TXK (Homo sapiens, UniProt P42681)
Sequence of TXK (P42681 whole entry): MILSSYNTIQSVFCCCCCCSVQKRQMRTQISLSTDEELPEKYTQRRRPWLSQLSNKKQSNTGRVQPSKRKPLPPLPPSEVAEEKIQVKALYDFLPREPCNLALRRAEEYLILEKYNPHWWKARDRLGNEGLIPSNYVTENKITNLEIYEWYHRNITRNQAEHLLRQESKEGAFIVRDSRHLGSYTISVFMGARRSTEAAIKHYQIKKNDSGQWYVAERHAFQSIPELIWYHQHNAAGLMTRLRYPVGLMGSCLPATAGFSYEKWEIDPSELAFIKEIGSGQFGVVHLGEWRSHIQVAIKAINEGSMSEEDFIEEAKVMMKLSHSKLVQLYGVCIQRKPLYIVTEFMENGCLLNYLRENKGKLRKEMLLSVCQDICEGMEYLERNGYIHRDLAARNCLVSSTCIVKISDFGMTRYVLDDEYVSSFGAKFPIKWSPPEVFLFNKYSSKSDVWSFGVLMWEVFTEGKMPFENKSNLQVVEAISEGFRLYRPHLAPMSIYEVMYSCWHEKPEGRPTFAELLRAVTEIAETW

[12] = molecular target: T4, Zipk (Homo sapiens, UniProt O43293)
T4 construct: gene DAPK3
T4 sequence (O43293 whole entry): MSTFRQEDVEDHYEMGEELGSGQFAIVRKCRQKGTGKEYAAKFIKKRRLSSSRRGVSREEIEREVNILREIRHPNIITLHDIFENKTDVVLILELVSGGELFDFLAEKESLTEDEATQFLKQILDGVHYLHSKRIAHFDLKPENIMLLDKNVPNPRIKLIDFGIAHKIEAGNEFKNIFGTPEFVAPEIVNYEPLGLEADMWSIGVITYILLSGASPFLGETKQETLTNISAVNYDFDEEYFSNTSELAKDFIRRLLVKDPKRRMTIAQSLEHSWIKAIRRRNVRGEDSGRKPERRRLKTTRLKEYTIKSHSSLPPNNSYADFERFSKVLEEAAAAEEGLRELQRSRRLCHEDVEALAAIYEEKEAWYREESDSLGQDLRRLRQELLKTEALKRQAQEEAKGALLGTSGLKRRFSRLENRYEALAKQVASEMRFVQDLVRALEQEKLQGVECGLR

[13] = molecular target: ErbB4 (Homo sapiens, UniProt Q15303)
[14] = molecular target: CAMK1D (Homo sapiens, UniProt Q8IU85)
[15] = molecular target: Pim1 (Homo sapiens, UniProt P11309)
[16] = molecular target: Fyn (Homo sapiens, UniProt P06241)
[17] = molecular target: CLK2 (Homo sapiens, UniProt P49760)
[18] = molecular target: ACVR1 (Homo sapiens, UniProt Q04771)
[19] = molecular target: Dyrk1A (Homo sapiens, UniProt Q13627)
[20] = molecular target: BRAF (Homo sapiens, UniProt P15056)
[21] = molecular target: MAP4K3 (Homo sapiens, UniProt Q8IVH8)
[22] = molecular target: FGR (Homo sapiens, UniProt P09769)
[23] = molecular target: SGK1 (Homo sapiens, UniProt O00141)
Sequence of SGK1 (O00141 whole entry): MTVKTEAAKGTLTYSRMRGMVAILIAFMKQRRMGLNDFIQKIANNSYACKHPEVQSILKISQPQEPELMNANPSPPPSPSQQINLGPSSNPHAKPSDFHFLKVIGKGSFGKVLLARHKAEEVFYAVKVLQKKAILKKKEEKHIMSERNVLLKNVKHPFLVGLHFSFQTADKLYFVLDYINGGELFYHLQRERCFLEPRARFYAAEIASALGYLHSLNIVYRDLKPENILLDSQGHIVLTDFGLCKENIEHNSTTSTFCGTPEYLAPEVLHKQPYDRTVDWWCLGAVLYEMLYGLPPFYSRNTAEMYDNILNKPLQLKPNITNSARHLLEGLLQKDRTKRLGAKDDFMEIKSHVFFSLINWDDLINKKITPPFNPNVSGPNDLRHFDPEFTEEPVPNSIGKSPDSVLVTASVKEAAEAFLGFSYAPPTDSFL

[24] = molecular target: MAP4K1 (Homo sapiens, UniProt Q92918)
[25] = molecular target: MERTK (Homo sapiens, UniProt Q12866)
[26] = molecular target: T5, Erk2 (Homo sapiens, UniProt P28482)
T5 construct: gene MAPK1

[27] = molecular target: MAP4K4 (Homo sapiens, UniProt O95819)
[28] = molecular target: Src (Homo sapiens, UniProt P12931)
[29] = molecular target: T6, _PKCtheta (Homo sapiens, UniProt Q04759)
T6 construct: gene PRKCQ
T6 sequence (Q04759 whole entry): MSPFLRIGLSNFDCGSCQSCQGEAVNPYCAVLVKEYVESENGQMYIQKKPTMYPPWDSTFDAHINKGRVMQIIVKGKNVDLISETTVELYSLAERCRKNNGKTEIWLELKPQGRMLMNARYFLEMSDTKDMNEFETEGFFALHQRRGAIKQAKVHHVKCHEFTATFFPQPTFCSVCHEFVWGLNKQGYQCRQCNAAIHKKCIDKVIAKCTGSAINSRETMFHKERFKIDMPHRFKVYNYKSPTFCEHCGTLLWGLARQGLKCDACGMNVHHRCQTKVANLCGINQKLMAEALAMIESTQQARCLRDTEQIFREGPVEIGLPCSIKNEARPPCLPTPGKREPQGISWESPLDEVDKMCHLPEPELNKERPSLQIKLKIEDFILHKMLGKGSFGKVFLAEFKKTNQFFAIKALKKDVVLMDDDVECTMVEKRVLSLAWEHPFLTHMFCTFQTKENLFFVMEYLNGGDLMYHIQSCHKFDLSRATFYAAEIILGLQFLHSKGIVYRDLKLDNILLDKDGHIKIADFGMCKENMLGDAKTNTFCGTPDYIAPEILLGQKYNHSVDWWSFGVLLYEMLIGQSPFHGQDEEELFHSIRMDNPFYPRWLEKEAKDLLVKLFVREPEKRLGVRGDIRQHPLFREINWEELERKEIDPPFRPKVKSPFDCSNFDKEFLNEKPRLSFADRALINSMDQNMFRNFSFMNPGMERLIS

Measured: IC50

Sequence of STK16 (O75716 whole entry): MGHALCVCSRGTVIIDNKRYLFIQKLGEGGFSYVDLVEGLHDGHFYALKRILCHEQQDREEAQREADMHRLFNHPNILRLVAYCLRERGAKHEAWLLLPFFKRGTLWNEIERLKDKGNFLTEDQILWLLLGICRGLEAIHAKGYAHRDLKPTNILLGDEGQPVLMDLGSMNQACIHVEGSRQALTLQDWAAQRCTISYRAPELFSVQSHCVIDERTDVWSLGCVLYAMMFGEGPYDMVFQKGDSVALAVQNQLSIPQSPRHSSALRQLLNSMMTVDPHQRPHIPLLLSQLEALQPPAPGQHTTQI
Sequence of Lck (P06239 whole entry): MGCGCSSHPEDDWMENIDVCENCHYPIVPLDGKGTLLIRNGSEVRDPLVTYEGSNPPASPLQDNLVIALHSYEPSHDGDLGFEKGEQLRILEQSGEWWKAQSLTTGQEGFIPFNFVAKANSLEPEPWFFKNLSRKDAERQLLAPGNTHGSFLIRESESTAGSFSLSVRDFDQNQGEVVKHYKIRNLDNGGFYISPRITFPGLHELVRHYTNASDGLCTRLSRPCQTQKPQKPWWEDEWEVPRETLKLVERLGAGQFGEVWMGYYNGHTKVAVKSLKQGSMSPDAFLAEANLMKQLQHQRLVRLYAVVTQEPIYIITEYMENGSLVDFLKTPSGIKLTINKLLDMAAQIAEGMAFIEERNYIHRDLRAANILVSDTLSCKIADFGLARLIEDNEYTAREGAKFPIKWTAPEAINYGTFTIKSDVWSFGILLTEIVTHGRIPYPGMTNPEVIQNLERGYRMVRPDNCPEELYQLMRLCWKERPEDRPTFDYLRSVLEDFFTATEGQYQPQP

CC(C)CCN[C@@H]1CCc2cc(O)c(N3CC(=O)NS3(=O)=O)c(F)c2C1 [AC484, ABBV-CLS-484]
> 10 µM: all assays above
